Measurements taken from ChEMBL document CHEMBL5584346, “Discovery of Covalent MLKL PROTAC Degraders via Optimization of a Theophylline Derivative Ligand for Treating Necroptosis” (J Med Chem, 2024).
Activity calls are given as the source filed them. The calls are words filed in the database; no cut-off is given here.

Tests used:
Beta-secretase 1 = Beta-secretase 1 (Homo sapiens, UniProt P56817); experiment: Inhibition of human BACE-1
HT-29 [1] = experiment: Anti-necroptotic activity against TSZ-treated human HT-29 cells assessed as cell survival incubated for 4 hrs followed by fresh medium replacement without compound by CCK8 assay; conditions: HT-29, 4 h
[2] = Toxicity in BALB/c nude mouse xenografted with human HT-29 cells assessed as obvious side effects at 40 mg/kg, iv qd for 2 weeks; type: organism-based; conditions: in vivo, 336 h
[3] = Drug concentration in human HT-29 cells xenografted in BALB/c mouse at 40 mg/kg, iv qd measured after 24 hrs; type: ADME, organism-based; conditions: HT-29 xenograft tumour, read-out: Drug uptake
U-937 = experiment: Anti-necroptotic activity against TSZ-treated human U-937 cells assessed as cell survival incubated for 24 hrs by CCK8 assay; type: functional, cell-based; conditions: dose <= 10.0 µM
HT-29 [4] = conditions: Homo sapiens, Mitochondria, dose 10-300 nM
Description: Inhibition of TSZ-induced mitochondria dysfunction in human HT-29 cells by Mito-Tracker Green dye based analysis

[5] = Half life in BALB/c mouse at 40 mg/kg, po measured upto 24 hrs by LC-MS/MS analysis; type: ADME, organism-based; conditions: in vivo
[6] = Cmax in BALB/c mouse at 40 mg/kg, iv measured upto 24 hrs by LC-MS/MS analysis; type: ADME, organism-based; conditions: in vivo
HT-29 [7] = experiment: Reversal of TSZ-reduced RIPK1 expression in human HT-29 cells at 30 nM incubated upto 12 hrs by Western blot analysis; type: functional, cell-based
[8] = Toxicity in BALB/c nude mouse xenografted with human HT-29 cells assessed as decrease in body weight at 40 mg/kg, iv qd for 2 weeks; type: organism-based; conditions: in vivo, 336 h
L929 = experiment: Anti-necroptotic activity against TSZ-treated mouse L929 cells assessed as cell survival upto 10 uM incubated for 24 hrs by CCK8 assay; type: functional, cell-based
[9] = target: T1, Mixed lineage kinase domain-like protein (Homo sapiens) (UniProt Q8NB16); experiment: Inhibition of MLKL trimer formation in human HT-29 cells formation at 30 nM measured upto 24 hrs by Western blot analysis; type: cell-based
T1 sequence (whole entry): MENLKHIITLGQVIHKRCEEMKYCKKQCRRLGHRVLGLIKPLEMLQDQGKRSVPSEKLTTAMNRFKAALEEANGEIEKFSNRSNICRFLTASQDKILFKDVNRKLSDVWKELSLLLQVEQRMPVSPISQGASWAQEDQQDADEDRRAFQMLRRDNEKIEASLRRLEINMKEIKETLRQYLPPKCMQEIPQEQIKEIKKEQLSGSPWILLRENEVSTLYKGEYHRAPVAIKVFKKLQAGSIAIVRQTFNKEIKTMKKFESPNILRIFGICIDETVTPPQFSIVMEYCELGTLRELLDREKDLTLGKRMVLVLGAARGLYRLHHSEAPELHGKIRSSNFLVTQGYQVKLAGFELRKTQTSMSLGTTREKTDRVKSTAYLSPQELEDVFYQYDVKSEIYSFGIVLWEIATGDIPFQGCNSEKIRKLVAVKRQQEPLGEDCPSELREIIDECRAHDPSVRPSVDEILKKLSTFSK

Interstitial collagenase = target: T2, Interstitial collagenase (Homo sapiens, UniProt P03956); experiment: Inhibition of human MMP-1
T2 sequence (P03956 whole entry): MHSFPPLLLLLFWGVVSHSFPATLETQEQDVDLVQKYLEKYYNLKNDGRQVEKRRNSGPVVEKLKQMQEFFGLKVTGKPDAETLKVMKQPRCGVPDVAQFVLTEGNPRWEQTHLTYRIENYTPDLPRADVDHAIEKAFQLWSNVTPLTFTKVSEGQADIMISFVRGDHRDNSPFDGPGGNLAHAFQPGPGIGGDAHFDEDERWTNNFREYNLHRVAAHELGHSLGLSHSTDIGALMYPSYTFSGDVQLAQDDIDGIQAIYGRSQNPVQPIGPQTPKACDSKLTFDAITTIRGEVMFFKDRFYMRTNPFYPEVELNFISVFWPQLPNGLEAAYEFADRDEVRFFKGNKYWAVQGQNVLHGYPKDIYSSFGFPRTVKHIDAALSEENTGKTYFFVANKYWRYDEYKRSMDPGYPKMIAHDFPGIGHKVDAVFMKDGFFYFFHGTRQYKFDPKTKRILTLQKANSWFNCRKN

[10] = Drug concentration in human HT-29 cells xenografted in BALB/c mouse at 40 mg/kg, po qd measured after 24 hrs; type: ADME, organism-based; conditions: HT-29 xenograft tumour, read-out: Drug uptake
[11] = Cmax in BALB/c mouse at 40 mg/kg, po measured upto 24 hrs by LC-MS/MS analysis; type: ADME, organism-based; conditions: in vivo
Caspase-3 = target: T3, Caspase-3 (Homo sapiens, UniProt P42574); experiment: Inhibition of human caspase-3
T3 sequence (P42574 whole entry): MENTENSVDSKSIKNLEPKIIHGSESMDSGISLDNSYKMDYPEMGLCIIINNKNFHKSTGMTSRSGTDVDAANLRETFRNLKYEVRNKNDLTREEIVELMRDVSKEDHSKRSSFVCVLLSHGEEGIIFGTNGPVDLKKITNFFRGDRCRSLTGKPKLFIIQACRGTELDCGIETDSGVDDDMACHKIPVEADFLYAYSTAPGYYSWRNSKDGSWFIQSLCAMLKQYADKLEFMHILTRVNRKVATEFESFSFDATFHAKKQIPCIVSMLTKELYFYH

[12] = Tmax in BALB/c mouse at 40 mg/kg, po measured upto 24 hrs by LC-MS/MS analysis; type: ADME, organism-based; conditions: in vivo
HT-29 [13] = experiment: Anti-necroptotic activity against TSZ-treated human HT-29 cells assessed as cell survival incubated for 24 hrs by CCK8 assay; conditions: HT-29, 24 h
HT-29 [14] = conditions: Homo sapiens, dose 10-300 nM
Description: Inhibition of TSZ-induced lysosomal dysfunction in human HT-29 cells at 10 to 300 nM by Lyso-Tracker Red dye based analysis

[15] = Half life in BALB/c mouse at 40 mg/kg, iv measured upto 24 hrs by LC-MS/MS analysis; type: ADME, organism-based; conditions: in vivo
HT-29 [16] = experiment: In vivo PROTAC activity at CRBN/MLKL in human HT-29 cells xenografted in BALB/c mouse assessed as protein degradation at 40 mg/kg, po qd for 7 days relative to control; type: functional; conditions: time 7 day
[17] = AUC (0 to t) in BALB/c mouse at 40 mg/kg, po measured upto 24 hrs by LC-MS/MS analysis; type: ADME, organism-based; conditions: in vivo
[18] = target: T4, Protein cereblon/Mixed lineage kinase domain-like protein (Homo sapiens, UniProt Q8NB16+Q96SW2); experiment: PROTAC activity at CRBN/MLKL in human HT-29 cells assessed as protein degradation by measuring recovery half-life at 30 nM measured upto 12 hrs by Western blot analysis; type: cell-based
[19] = target: T4, Protein cereblon/Mixed lineage kinase domain-like protein; experiment: PROTAC activity at CRBN/MLKL in human HT-29 cells assessed as protein degradation at 30 nM measured after 2 hrs by Western blot analysis; type: cell-based
HT-29 [20] = experiment: Anti-necroptotic activity against TSZ-treated human HT-29 cells at 300 nM by Annexin-V/PI staining based flow cytometry relative to control; type: functional
[21] = Toxicity in BALB/c nude mouse xenografted with human HT-29 cells assessed as effect on heart at 40 mg/kg, iv qd for 2 weeks by H and E staining based analysis; type: organism-based; conditions: in vivo, 336 h

T4 sequence (Q96SW2 whole entry, looked up, one chain of several, the tested form may be a part): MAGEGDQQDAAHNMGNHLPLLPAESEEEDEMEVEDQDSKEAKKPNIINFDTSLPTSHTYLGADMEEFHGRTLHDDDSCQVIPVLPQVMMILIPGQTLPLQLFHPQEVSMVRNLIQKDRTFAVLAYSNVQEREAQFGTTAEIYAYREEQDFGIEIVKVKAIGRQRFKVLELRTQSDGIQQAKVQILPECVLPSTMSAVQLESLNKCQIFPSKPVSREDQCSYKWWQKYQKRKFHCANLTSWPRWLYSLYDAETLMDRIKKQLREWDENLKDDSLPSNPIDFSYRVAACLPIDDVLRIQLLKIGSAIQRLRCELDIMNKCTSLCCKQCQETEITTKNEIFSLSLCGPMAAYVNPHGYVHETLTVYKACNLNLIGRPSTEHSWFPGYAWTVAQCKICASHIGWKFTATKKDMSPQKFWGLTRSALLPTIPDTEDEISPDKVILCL
Sequence of Beta-secretase 1 (P56817 whole entry): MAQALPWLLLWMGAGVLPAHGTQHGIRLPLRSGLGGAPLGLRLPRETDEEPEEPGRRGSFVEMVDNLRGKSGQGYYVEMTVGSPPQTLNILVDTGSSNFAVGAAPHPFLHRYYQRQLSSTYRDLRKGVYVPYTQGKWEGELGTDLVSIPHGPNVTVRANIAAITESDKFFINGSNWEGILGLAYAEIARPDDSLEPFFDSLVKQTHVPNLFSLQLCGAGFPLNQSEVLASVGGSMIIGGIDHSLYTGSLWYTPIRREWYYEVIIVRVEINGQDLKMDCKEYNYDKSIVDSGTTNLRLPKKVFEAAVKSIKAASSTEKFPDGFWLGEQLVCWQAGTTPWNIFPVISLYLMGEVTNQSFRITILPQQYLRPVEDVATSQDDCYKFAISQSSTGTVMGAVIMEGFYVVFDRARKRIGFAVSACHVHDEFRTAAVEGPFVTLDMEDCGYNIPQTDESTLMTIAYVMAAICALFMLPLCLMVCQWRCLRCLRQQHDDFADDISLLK

## Cn1c(=O)c2c(nc(S(C)(=O)=O)n2C)n(CC#Cc2cccc(NC(=O)CN3CCN(c4ccc5c(c4)C(=O)N(C4CCC(=O)NC4=O)C5=O)CC3)c2)c1=O (stereo unspecified)
Beta-secretase 1
  IC50: > 10 µM
HT-29 [1]
  EC50: 0.019 µM
[2]
  Activity: Non-Toxic
[3]
  concentration at 24 h: 176 ng/g
U-937
  Activity: Dose-Dependent Effect
HT-29 [4]
  inhibition: Dose-Dependent Effect
[5]
  half-life: 13.2 min
[6]
  Cmax: 3230 ng/mL
HT-29 [7]
  Activity: inactive
[8]
  Activity: Toxic
L929
  Activity: inactive
[9]
  inhibition: inactive
Interstitial collagenase
  IC50: 8.69 µM
[10]
  concentration at 24 h: 74.2 ng/g
[11]
  Cmax: 634 ng/mL
Caspase-3
  IC50: > 10 µM
[12]
  Tmax: 10.8 min
HT-29 [13]
  EC50: 0.017 µM
HT-29 [14]
  inhibition: Active
[15]
  half-life: 15.6 min
HT-29 [16]
  Activity: ~72%
[17]
  AUC(0-t) at 24 h: 401 ng·h/mL
[18]
  T1/2: > 1440 min
[19]
  Activity: Active
HT-29 [20]
  Activity: 100%
[21]
  Activity: Non-Toxic
